PubChem BioAssay AID310 (DTP/NCI, 2004)
Several values for one entry are separate records, joined by “and”; a condition that tells them apart may be missing. Equal values may be shown once. Results filed as inconclusive are left out. Where a SMILES comes first, the peptide text is derived from it. [ ]: non-standard residue; d: D form. Ac5c = NC1(C(=O)O)CCCC1

Tested on: C3AKF1 mice, osteogenic sarcoma HE10734 s.c., tumor weight T/C
Experiment: NCI In Vivo Anticancer Drug Screen. Data for tumor model Osteogenic Sarcoma HE 10734 (subcutaneous) in C3AKF1 (CHKRF1) mice
Settings: endpoint: mean tumor weight, schedule: Q01DX010 (ip), higher = larger tumour
Description: The antitumor activity of compounds was measured in mice bearing transplantable tumors. Survival or tumor size were measured and the results are expressed as the measurement made in the treated group (T) divided by the measurement made in the vehicle treated control group (C). The tumor model used in this assay is Osteogenic Sarcoma HE 10734 (subcutaneous) in C3AKF1 (CHKRF1) mice

[1] = dose: 100.0 mg/kg/injection, vehicle: saline
[2] = dose: 75.0 mg/kg/injection, vehicle: saline
[3] = dose: 55.0 mg/kg/injection, vehicle: carboxymethylcellulose (CMC)
[4] = dose: 85.0 mg/kg/injection, vehicle: carboxymethylcellulose (CMC)
[5] = dose: 6.0 mg/kg/injection, vehicle: saline
[6] = dose: 12.0 mg/kg/injection, vehicle: saline
[7] = dose: 22.0 mg/kg/injection, vehicle: carboxymethylcellulose (CMC)
[8] = dose: 150.0 mg/kg/injection, vehicle: saline
[9] = dose: 25.0 mg/kg/injection, vehicle: carboxymethylcellulose (CMC)
[10] = dose: 50.0 mg/kg/injection, vehicle: carboxymethylcellulose (CMC)
[11] = dose: 1.0 mg/kg/injection, vehicle: carboxymethylcellulose (CMC)
[12] = dose: 4.0 mg/kg/injection, vehicle: carboxymethylcellulose (CMC)

## Cc1ccc(N=NN(C)C)cc1
dose: 25.0 mg/kg/injection, vehicle: saline
  T/C: 83 % of control
dose: 50.0 mg/kg/injection, vehicle: saline
  T/C: 46 % of control
[1]
  T/C: 46 % of control

## C=CC(=O)NCNC(=O)C=C
dose: 37.5 mg/kg/injection, vehicle: saline
  T/C: 66 % of control
[2]
  T/C: 65 % of control

## NC1(C(=O)O)CCCC1
dose: 15.0 mg/kg/injection, vehicle: saline
  T/C: 109 % of control
dose: 23.0 mg/kg/injection, vehicle: saline
  T/C: 46 % of control
dose: 35.0 mg/kg/injection, vehicle: saline
  T/C: 77 % of control
[3]
  T/C: 30 % of control and 42 % of control
dose: 55.0 mg/kg/injection, vehicle: saline
  T/C: 46 % of control
[4]
  T/C: 27 % of control and 45 % of control

## [I][Hg][CH2]C1COCC([CH2][Hg][I])O1.[I][Hg][CH2]C1COCC([CH2][Hg][I])O1 (configuration not stated)
[5]
  T/C: 83 % of control
[6]
  T/C: 52 % of control

## Cc1nc(N)nc(N)c1-c1ccc(Cl)c(Cl)c1
dose: 0.09 mg/kg/injection, vehicle: carboxymethylcellulose (CMC)
  T/C: 94 % of control
dose: 0.18 mg/kg/injection, vehicle: carboxymethylcellulose (CMC)
  T/C: 103 % of control
dose: 0.37 mg/kg/injection, vehicle: carboxymethylcellulose (CMC)
  T/C: 88 % of control
dose: 1.5 mg/kg/injection, vehicle: carboxymethylcellulose (CMC)
  T/C: 21 % of control

## COc1cc([C@@H]2c3cc4c(cc3[C@H](O)[C@H]3COC(=O)[C@@H]23)OCO4)cc(OC)c1OC
dose: 7.0 mg/kg/injection, vehicle: saline
  T/C: 75 % of control

## CS(=O)(=O)OC[C@@H](O)[C@@H](O)COS(C)(=O)=O
dose: 62.5 mg/kg/injection, vehicle: carboxymethylcellulose (CMC)
  T/C: 88 % of control
dose: 125.0 mg/kg/injection, vehicle: carboxymethylcellulose (CMC)
  T/C: 53 % of control and 74 % of control
dose: 500.0 mg/kg/injection, vehicle: carboxymethylcellulose (CMC)
  T/C: 92 % of control and 109 % of control

## CCC[CH2][Sn]([CH2]CCC)([CH2]CCC)[O]C(=O)CC[S][Sn]([CH2]CCC)([CH2]CCC)[CH2]CCC
dose: 0.75 mg/kg/injection, vehicle: saline
  T/C: 124 % of control
dose: 1.5 mg/kg/injection, vehicle: saline
  T/C: 90 % of control
[5]
  T/C: 72 % of control
[6]
  T/C: 89 % of control
dose: 24.0 mg/kg/injection, vehicle: saline
  T/C: 30 % of control

## S=C(N=Nc1ccccc1)NNc1ccccc1
dose: 45.0 mg/kg/injection, vehicle: carboxymethylcellulose (CMC)
  T/C: 95 % of control
dose: 65.0 mg/kg/injection, vehicle: carboxymethylcellulose (CMC)
  T/C: 49 % of control

## Nc1nc(N)c(N=O)c(Nc2ccc(Br)cc2)n1
[7]
  T/C: 94 % of control
dose: 44.0 mg/kg/injection, vehicle: carboxymethylcellulose (CMC)
  T/C: 66 % of control
dose: 88.0 mg/kg/injection, vehicle: carboxymethylcellulose (CMC)
  T/C: 62 % of control
dose: 175.0 mg/kg/injection, vehicle: carboxymethylcellulose (CMC)
  T/C: 58 % of control and 61 % of control
dose: 265.0 mg/kg/injection, vehicle: carboxymethylcellulose (CMC)
  T/C: 33 % of control
dose: 395.0 mg/kg/injection, vehicle: carboxymethylcellulose (CMC)
  T/C: 34 % of control

## O=[N+]([O-])c1ccccc1CSc1ncnc2nc[nH]c12
dose: 62.0 mg/kg/injection, vehicle: saline
  T/C: 106 % of control
dose: 125.0 mg/kg/injection, vehicle: saline
  T/C: 81 % of control
dose: 250.0 mg/kg/injection, vehicle: saline
  T/C: 28 % of control

## Clc1ncnc2c1ncn2C1CCCO1 (configuration not stated)
dose: 37.0 mg/kg/injection, vehicle: saline
  T/C: 77 % of control and 80 % of control
dose: 450.0 mg/kg/injection, vehicle: saline
  T/C: 69 % of control

## O=c1[nH]c2cc(Cl)c(Cl)cc2o1
dose: 10.0 mg/kg/injection, vehicle: carboxymethylcellulose (CMC)
  T/C: 84 % of control
dose: 16.0 mg/kg/injection, vehicle: carboxymethylcellulose (CMC)
  T/C: 113 % of control
dose: 24.0 mg/kg/injection, vehicle: carboxymethylcellulose (CMC)
  T/C: 74 % of control
dose: 37.0 mg/kg/injection, vehicle: carboxymethylcellulose (CMC)
  T/C: 105 % of control and 117 % of control
[3]
  T/C: 80 % of control
[4]
  T/C: 98 % of control

## NCC(=O)NC1(C(=O)O)CCCC1 (H-Gly-[Ac5c]-OH)
dose: 66.0 mg/kg/injection, vehicle: saline
  T/C: 79 % of control
[1]
  T/C: 58 % of control
[8]
  T/C: 35 % of control
dose: 225.0 mg/kg/injection, vehicle: saline
  T/C: 20 % of control and 27 % of control

## O=c1[nH]cnc2n[nH]nc12
[2]
  T/C: 80 % of control
[8]
  T/C: 103 % of control
dose: 300.0 mg/kg/injection, vehicle: saline
  T/C: 87 % of control
dose: 600.0 mg/kg/injection, vehicle: saline
  T/C: 99 % of control

## CCCNC(=NC)c1ccc(NC(=O)c2ccc(C(=O)Nc3ccc(C(=NC)NCCC)cc3)cc2)cc1
dose: 3.0 mg/kg/injection, vehicle: saline
  T/C: 91 % of control
[5]
  T/C: 46 % of control
[6]
  T/C: 46 % of control

## O=C(O)CC(O)(CC(=O)O)C(=O)O.[Ga]
dose: 12.5 mg/kg/injection, vehicle: carboxymethylcellulose (CMC)
  T/C: 84 % of control
[9]
  T/C: 84 % of control
[10]
  T/C: 39 % of control

## CCCCCCCCCCCCCCCCC(C(=O)O)C(O)(CC(=O)O)C(=O)O (configuration not stated)
[7]
  T/C: 100 % of control
dose: 35.0 mg/kg/injection, vehicle: carboxymethylcellulose (CMC)
  T/C: 68 % of control

## NC(=O)c1ccc(NC(=O)CCC(=O)Nc2ccc(C(N)=O)cn2)nc1
dose: 0.66 mg/kg/injection, vehicle: carboxymethylcellulose (CMC)
  T/C: 118 % of control and 120 % of control
dose: 2.5 mg/kg/injection, vehicle: carboxymethylcellulose (CMC)
  T/C: 67 % of control

## C/C=C1\CN(C)[C@H]2Cc3c([nH]c4ccccc34)[C@@H](c3cc4[nH]c5c(c4cc3OC)CCN3C[C@H]4C[C@H](CC)[C@H]3[C@@]5(C(=O)OC)C4)C[C@H]1C2C(=O)OC (some centres not stated)
dose: 20.0 mg/kg/injection, vehicle: water
  T/C: 49 % of control

## CCOc1ccc(Nc2ncnc3nc[nH]c23)cc1CN(CCCl)CCCl
[11]
  T/C: 86 % of control
[12]
  T/C: 94 % of control
dose: 8.0 mg/kg/injection, vehicle: carboxymethylcellulose (CMC)
  T/C: 83 % of control and 95 % of control

## O=P(N1CC1)(N1CC1)N1CC1
dose: 0.5 mg/kg/injection, vehicle: carboxymethylcellulose (CMC)
  T/C: 104 % of control
[11]
  T/C: 76 % of control
dose: 2.0 mg/kg/injection, vehicle: carboxymethylcellulose (CMC)
  T/C: 67 % of control
[12]
  T/C: 41 % of control

## CCC(=O)NC1=C(N2CC2)C(=O)C(NC(=O)CC)=C(N2CC2)C1=O
dose: 0.26 mg/kg/injection, vehicle: saline
  T/C: 118 % of control
dose: 0.4 mg/kg/injection, vehicle: saline
  T/C: 77 % of control
dose: 1.2 mg/kg/injection, vehicle: saline
  T/C: 30 % of control

## CCN(CC)CCN1C(=O)c2cccc3cccc(c23)C1=O
[9]
  T/C: 86 % of control
[10]
  T/C: 78 % of control
dose: 100.0 mg/kg/injection, vehicle: carboxymethylcellulose (CMC)
  T/C: 85 % of control
